Reference: a melting point compilation (Tetko et al.; mined from patent text by program, amines drawn as free bases though some values may be those of a salt)

SMILES | melting point [°C]
CCOC(=O)C1CCCCCCCC(=O)N1 (configuration not stated) | 101 to 103
CON=Cc1c(S(N)(=O)=O)ccn1C | 120 to 122
CC(C)N(C(=O)c1c(Cl)cccc1[Si](C)(C)C)C(C)C | 96 to 97.5
O=S(=O)(CC(O)(CI)c1ccccc1)c1ccccc1 (configuration not stated) | 98
CC(C)(C)OC(=O)N1CCN(c2ccc(NC(=O)Nc3nc(C(C)(C)C)cs3)cc2)CC1 | 123 to 124
CC(C)(C)OC(=O)Nc1ccncc1C(=O)O | 260
Cc1cc(Cl)c(S(C)(=O)=O)cc1C(=O)O | 180 to 183
O=C1CCC(N2Cc3c(OCc4ccc(CN5CCC(c6ccccc6)CC5)cc4)cccc3C2=O)C(=O)N1 (configuration not stated) | 220 to 222
CS(=O)(=O)c1ccc(/C(=C(\CCO)C(=O)O)c2ccc(Cl)cc2)cc1 | 144 to 145
COc1ccc(C(=O)Nc2c(Cl)cncc2Cl)c2c1OCCCCO2 | 115 to 117
CCOC(=O)c1cn(C2CC2)c2c(F)c(N3CC(OS(C)(=O)=O)C3)c(F)cc2c1=O | 191 to 193
CC1(C(=O)Nc2cnc(Cl)c(Cl)c2)CC1 | 115 to 117
O=C1CCC(C(=O)OCc2ccccn2)N1 (configuration not stated) | 130 to 131
COc1ccc(C(=O)O)c(O)c1O | 234
CN(Cc1cccc2c1CN(C1CCC(=O)NC1=O)C2=O)C(=O)Nc1ccccc1 (configuration not stated) | 186 to 188
O=C(O)c1ccc(C(=O)N2CCN(C(=O)N3CCOCC3)CC2)cc1 | 203 to 205
O=C1Cc2cc(NC(=O)C(=O)N3CCC(COc4ccccc4)CC3)ccc2N1 | 200 to 202
Nc1ccccc1CNC(=O)C1Cc2ccccc2N1S(=O)(=O)c1ccc(-c2ccc(F)cc2F)cc1 (configuration not stated) | 93 to 96
O=C(O)c1cccc(NC(=O)N2CCc3cc(S(=O)(=O)N4CCN(c5cccc(Cl)c5)CC4)ccc32)c1 | 250
Cc1ccc(S(=O)(=O)N2CCC[C@H]2C(=O)N[C@@H](Cc2ccc(OCCN3CCCCCC3)cc2)C(=O)O)cc1 | 105 to 107
O=C1CCC(N2Cc3c(OCc4ccc(CN5CCN(S(=O)(=O)c6ccc(F)c(F)c6)CC5)cc4)cccc3C2=O)C(=O)N1 (configuration not stated) | 225 to 227
COCCN(CC1=CCC(Oc2ccccc2)([N+](=O)[O-])C=C1)C(=O)C(Cl)Cl (configuration not stated) | 116 to 117
Cc1ccc(-c2c(NS(=O)(=O)c3ccc(C(C)(C)COc4ncc(Br)cn4)cc3)ncnc2OCCOc2ncc(Br)cn2)cc1 | 156 to 158
CCCC[C@H](NC(=O)[C@H](CC(C)C)NC(=O)c1ccc(F)c(F)c1F)C(=O)CSCc1ccco1 | 101 to 102
COC(=O)C1(C(=O)Nc2ccc(Br)cc2C)C2CCCCC21 (configuration not stated) | 105 to 107
O=C(Nc1ccc(Oc2ccnc(N3CCC(O)CC3)n2)c2ccccc12)c1cc(F)cc(N2CCOCC2)c1 | 106 to 108

SMILES | melting point [°C]
CC(C)(O)CON1C(C)(C)CC(O)CC1(C)C | 127 to 131
O=C1CS(=O)(=O)CN1c1cccc(C(F)(F)F)c1 | 115 to 117
Nc1ccc(OCC(O)CN2CCN(c3ccccc3C(=O)O)CC2)cc1 (configuration not stated) | 260 to 263
O=C1NC(=O)C2(CCCCC2)N1c1ccc(I)cc1 | 249 to 251
CC(C)(C)OC(=O)N1CCC(Oc2ccc(C#N)c(/C=C/N3CCCC3)c2)CC1 | 115 to 117
CN(Cc1cc2c3c(c1)c(=O)c(C(=O)NCc1ccc(Cl)cc1)cn3CC(=O)N2C)C[C@H](O)c1cccnc1 | 125 to 127
Cc1ccc(S(=O)(=O)OC[C@H]2CCC[C@H](OCc3c(Cl)cccc3Cl)O2)cc1 (relative stereo) | 123 to 124
Cc1cc(C)c2c(n1)N(CCN(C(C)C)C(C)C)C(=O)N(C)C2 | 97 to 99
NC(=O)c1ccc(-c2ccc(N)cc2)cc1 | 281 to 284
Cc1ccc(N2CCN(c3ccc4c(ncc5c4c(=O)c(C(=O)O)cn5C)c3F)CC2)cc1F | > 300
Cc1csc(C(C)(O)c2nc(C)cs2)n1 | 82 to 84
O=C1c2c(O)ccc(O)c2C(=O)c2c(NCCN3CCCCC3CO)ccc(NCCN3CCCCC3CO)c21 (configuration not stated) | 208 to 210
COc1cc(C2c3cc4c(cc3C(NC3=CC(=O)N(CCCCCC(=O)O)C3=O)C3COC(=O)C23)OCO4)cc(OC)c1O (configuration not stated) | 150 to 152
O=C(NCCCCCNc1c([N+](=O)[O-])cnc2ccccc12)c1ccccc1 | 130 to 132
CCCCC(CC)C(=O)C=P(c1ccccc1)(c1ccccc1)c1ccccc1 (configuration not stated) | 106 to 108
Nc1ccccc1N1CCN(CC(O)COc2cccc3c2CCCC3)CC1 (configuration not stated) | 103 to 104
O=Cc1cc2c3ccccc3oc2c2ccccc12 | 123 to 125
CC(=O)Nc1c(C(=O)c2ccccc2)[nH]c2cccc(Cl)c12 | 221 to 222
CC(=O)C(=Cc1cccc([N+](=O)[O-])c1)P(=O)(OCC(C)(C)C)OCC(C)(C)C | 139 to 140
CCC(CCC(=C(C#N)C(N)=O)c1cc(O)c(O)c(O)c1)NC(=O)C(C#N)=Cc1cc(O)c(O)c(O)c1 (configuration not stated) | > 300
CC(=O)Nc1ccc(O[C@H]2CCN(C)C[C@H]2c2ccccc2)cc1 (relative stereo) | 174 to 176
O=C(NCc1cncc(F)c1)c1ccc(S(=O)(=O)n2cc(-c3ccccc3)c3ccccc32)cc1 | 131
O=S1(=O)NC(C2CCCCC2)Nc2cc3c(cc21)OCCO3 (configuration not stated) | 196 to 200
O=S(=O)(NC1(CO)CCCC1)c1ccc2c(Cl)cnc(Cl)c2c1 | 148 to 150
CCCCCN(C[C@H]1CC[C@H](CN(CCCCC)C(=O)Nc2ccc(N(C)C)cc2)CC1)C(=O)Nc1ccc(N(C)C)cc1 | 205 to 208
CN(C)C=NS(=O)(=O)c1cc(CCNC(=O)C(F)(F)F)ccc1OCc1ccccc1 | 103

Next, values leading:

melting point [°C] | SMILES
191 to 195 | CN(CCO)c1nccc(-c2ccncc2)n1
166 to 169 | CCCCOc1ccc(Nc2c([N+](=O)[O-])ccc(Cl)c2C(=O)O)cc1
109 to 110 | CCCOC(=O)c1cc(=O)c2cc(OCc3cccc(OCc4ccc5ccccc5n4)c3)ccc2o1
> 300 | Cn1nc2c(cc1=O)CCc1cc(O)ccc1-2
167 to 168 | Cc1ccc2oc(-c3ccccc3-c3nnn[nH]3)c(Br)c2c1
124 to 126 | C=CCc1ccc(CCNC(=O)c2cc(Cl)ccc2OC)cc1S(=O)(=O)NC(=O)NC
201 to 204 | COc1ccc(Cc2nc3c(N)nc4ccccc4c3n2CCOc2ccccc2)cc1
67 to 68 | Nc1ccc(OCc2ccccc2)cc1C=C(Br)Br
251 to 255 | NC1CCN(c2nc3c(cc2F)c(=O)c(C(=O)O)cn3CCF)C1 (configuration not stated)
124 | CN1CCN(c2cccc3ccc(C(=O)c4ccccc4)cc23)CC1
77 to 78 | CCOc1ccc(C2=NNCCC2)cc1OCC
204 | CCc1c(Cl)c2ccccn2c1C(=O)c1ccc(O)c(Br)c1
272 to 274 | COc1cc(C(C)C)ccc1C1(O)C(=O)c2ccc(N)c(N)c2C1=O (configuration not stated)
128 to 130 | COC1(c2cc(F)cc(Sc3ccc4c(c3)n(C)c(=O)n4C)c2)CCOCC1
135 to 140 | CN(C)c1ccc(-c2nnc(-c3ccccc3)o2)cc1
80 to 83 | COC(=O)c1ccc2ccc(OC)cc2c1O
205 | CCOC(=O)c1cn(C)c2nc(Cl)ncc2c1=O
135 to 138 | CC(C)CC(=O)Nc1cccc(-c2ccnc3c(-c4cccc(CN5CCN(C)CC5)c4)cnn23)c1
92 to 97 | CCn1ncc(C(=S)c2ccc3c(c2C)/C(=N/OC)CCS3)c1O
220 to 223 | COc1cc(Nc2c(C#N)cnc3cc(OS(=O)(=O)C(F)(F)F)c(OC)cc23)c(Cl)cc1Cl
136 to 138 | COc1ccc2c(c1)cc(/C=C/c1ccccc1Cl)n2CCC#N
277 to 279 | Cc1ccc(-c2[nH]c(-c3c(C)cc(C)cc3C)nc2-c2ccncc2)cc1
95 to 97 | COc1ccc2c(c1)CC[C@@H]1[C@@H]2CC[C@@]2(C)[C@H]1CCC21CC(O)CO1 (some centres not stated)

melting point [°C] | SMILES
112 to 114 | Cc1cc(C)n(-c2cnc(CN(C)C)c(Nc3ccc(Cl)cc3)n2)n1
131 to 133 | CCC[C@@H]1COC(=O)N1c1nc(-c2ccc(C#N)cc2)cs1
28 | CCc1nc2c(C)cc(C)nc2n1Cc1ccc(C(=Cc2nnn[nH]2)c2ccccc2Cl)cc1
143 to 145 | O=C(O)Cc1ccc(-c2ccc(F)cc2F)cc1
> 230 | CSc1nn2c(O)cc(O)nc2c1S(=O)(=O)c1ccccc1
85 to 86 | Cc1cc(-c2nc(COc3ccc(CCCCn4ccnc4)cc3)co2)sc1Br
193 to 194 | CNC(=O)NS(=O)(=O)c1cc2c(cc1OC)OCCC2CNC(=O)c1cc(F)ccc1OC (configuration not stated)
185 to 195 | COc1cc(N2CCN(C)CC2)ccc1-c1nc2c(N[C@H]3[C@@H](C(N)=O)[C@@H]4C=C[C@H]3C4)ccnc2[nH]1
253 to 254 | CCCn1c(=O)c2[nH]c(/C=C/c3ccc(C)c(C)c3)nc2n(CCC)c1=O
100 to 102 | CC[C@H](COC)n1cc(Cl)nc(N2CCc3cc(OC)cc(Br)c32)c1=O
117 to 119 | CCOC(=O)c1cn2c3c(cccc3c1=O)CC2(C)C
99 to 100 | COCOc1ccccc1-c1cc(-c2cccc(CN=[N+]=[N-])c2)c(C#N)c(N)n1
178 to 180 | CCOC(=O)C1=C(C)Nc2ncn(C(C)C)c(=O)c2C1c1ccccc1F (configuration not stated)
119 to 120 | COc1ccc2cc3c(CN)nn(C)c3nc2c1
138 | Cc1noc(C)c1-c1ccc(OC2SCC(O)C(O)C2O)cn1 (configuration not stated)
163 to 166 | CCOCc1nc2c(N)nc(C)c(C)c2n1CCN
225 to 226 | Cc1ccc(S(=O)(=O)NC(CN)C(=O)O)cc1 (configuration not stated)
109 to 111 | CCN(C)c1nc2cc(Br)ccn2n1
147 to 149 | Cn1cc(-c2ccncn2)ccc1=O
141 to 143 | Cn1nc(-c2c(F)cccc2Cl)nc1C(O)c1ccc(Cl)cc1 (configuration not stated)
178 to 180 | CS(=O)(=O)c1ccc(-c2cnn(-c3cccc(Cl)c3)c(=O)c2Oc2cccc(F)c2)cc1
122 to 123 | C=CCOc1cccc2oc(C(=O)OCC)cc(=O)c12
